The source of these data is US20100249238A1, “PHARMACEUTICAL COMPOSITIONS COMPRISING SEMICARBAZONES AND THIOSEMICARBAZONES AND METHOD FOR TREATING INFLAMMATORY, PAINFUL AND FEBRILE CONDITIONS AND PREVENTING SIGNS AND SYMPTOMS OF INFLAMMATION” (priority 2007, published 2010).

The structures appear in SMILES notation. Read-outs that look alike come from different tables or passages of the source. Marks after values point to notes of the source that are not given here.

Series [1] relates to nociceptive response induced by formaldehyde. Briefly: nociceptive response induced by formaldehyde in mice. It is filed as in vivo. On the procedure: In the nociceptive response induced by formaldehyde (0.92%, 20 μL), the inflammatory stimulus is injected subcutaneously into the dorsum of the right hind paw of male Swiss mice. The time the animal spent licking its injected paw was determined from 0 to 5 min (first phase) and from 15 to 30 min (second phase) after formaldehyde injection. Dimethyl sulfoxide (DMSO) 25%+Tween 80 10% in saline was the vehicle used for intraperitoneal administration and carboxymethylcellulose 0.5%, a pharmaceutically acceptable excipient, was used for oral administration. Thirty or 60 min after intraperitoneal or oral administration, respectively, formaldehyde was injected and the nociceptive behavior evaluated as described.

The test system of series [2] is paw edema induced by carrageenan. Description: paw edema induced by carrageenan in rats. It is filed as in vivo. Conditions: 50 mg/kg i.p. -30 min or 200 mg/kg oral -60 min. As to the method:
The paw edema was assessed using a pletismometer (model 7140, Ugo Basile, Italy). The basal paw volume was determined before any treatment and the edema was induced by intraplantar injection of carrageenan into the right hindpaw (1%, 50 μl, suspended in saline). Dimethyl sulfoxide (DMSO) 25%+Tween 80 10% in saline was the vehicle used for intraperitoneal administration and carboxymethylcellulose 0.5%, a pharmaceutically acceptable excipient, was used for oral administration. Thirty or 60 min after intraperitoneal or oral administration, respectively, carrageenan (1%, 50 μl, suspended in saline) was injected and the paw edema was evaluated as described.

The test system of series [3] is mechanical allodynia induced by carrageenan. Description: mechanical allodynia induced by carrageenan in rats (nylon filament). Format: in vivo. Conditions: 50 mg/kg i.p. -30 min, 100 or 200 mg/kg oral -60 min. As to the method:
(§1) In the model of thermal allodynia, the latency for paw removal after application of a thermal stimulus is assessed in the Hargreaves apparatus (model 7370, Ugo Basile, Italy). In the model of mechanical allodynia, the frequency of paw withdrawal to a series of ten touches with a nylon filament to the plantar surface of the right hind paw is determined. Dimethyl sulfoxide (DMSO) 25%+Tween 80 10% in saline was the vehicle used for intraperitoneal administration and carboxymethylcellulose 0.5%, a pharmaceutically acceptable excipient, was used for oral administration. Thirty or 60 min after intraperitoneal or oral administration, respectively, carrageenan (1%, 50 μl, suspended in saline) was injected into the plantar surface of the right hindpaw and the latency for paw removal after application of a thermal stimulus or the frequency of paw withdrawal to the mechanical stimulus was evaluated as described.

For series [4], the system named is thermal allodynia induced by carrageenan. Description: thermal allodynia induced by carrageenan in rats (Hargreaves apparatus). It is filed as in vivo. The note with it: 50 mg/kg i.p. -30 min, 100 or 200 mg/kg oral -60 min. As to the method:
as §1

Series [5] relates to fibrovascular tissue formation induced by cotton. Briefly: fibrovascular tissue formation induced by subcutaneous cotton implant. It is filed as in vivo, mice. Conditions: 200 mg/kg per day, per os, 7 days; cotton pellet. As to the method: In the model of fibrovascular tissue formation, a cotton pellet (10 mg) is subcutaneously implanted in the back of mice. After seven days, the mice are euthanized and the cotton pellet involved plus the surrounding fibrovascular tissue is removed and its mass determined. Carboxymethylcellulose 0.5%, a pharmaceutically acceptable excipient, was used for oral administration. BS (200 mg/kg·day, oral) was administered during seven days. Twenty-four hours after the last administration, the animals were euthanised and the mass of the cotton pellet plus the surrounding fibrovascular tissue was determined as described.

In series [6] the test system is febrile response induced by endotoxin of E. coli. Description: febrile response induced by bacterial endotoxin in rats. It is filed as in vivo. The note with it: 200 mg/kg oral -60 min. As to the method: In this model, endotoxin of E. coli (50 μg/kg) is injected intravenously in rats and the colonic temperature is determined during 6 h.
Carboxymethylcellulose 0.5%, a pharmaceutically acceptable excipient, was used for oral administration. BS (200 mg/kg, oral, −60 min) inhibited the febrile response induced by endotoxin.

Series [7] is described as follows: oral subacute toxicity, OECD 407 repeated dose 28 days, body weight. It is filed as in vivo, rats. Conditions: for Final body mass / Initial body mass: BS, mean ± sem. On the procedure:
(§2) Toxicological studies were based on established protocols (OECD Test Guidelines) internationally recognized as a reference standard tool for chemical tests.
The OECD 407 guideline—Repeated-dose Procedure for Assessing Oral Subacute Toxicity (OECD, 1995) was used. The test substance was administered orally daily (from 11:00 am to 1:00 pm) during 28 days. The animals were observed daily during the whole period. Doses of 100, 300, 500 mg/kg for BS were used.
(§3) Laboratory analyses for acute (macroscopic and microscopic analyses) and subacute (macroscopic and microscopic analyses, biochemical and hematologic analysis) toxicity tests were carried out.

The test system of series [8] is rats. Briefly: oral acute toxicity, OECD 420 fixed-dose procedure. It is filed as in vivo. On the procedure: as §2
Only one dose of substances (300 mg/kg or 2000 mg/kg) was administered orally in rats. A careful observation of the rats was made 30 minutes later and repeated hourly up to 12 h. […] After that, the animals were euthanised and submitted to macroscopic and microscopic necropsy.
as §3

The test system of series [9] is nociceptive response induced by heat. Description: nociceptive response induced by heat in the hot plate model. Format: in vivo. Conditions: mice; 54° C.; 10, 25 or 50 mg/kg i.p. -30 min; 100 or 200 mg/kg oral -60 min. As to the method: In this model, the mice were exposed to a heat metal surface (54° C.) and the latency for licking the paws or jumping off the plate was determined. Dimethyl sulfoxide (DMSO) 25%+Tween 80 10% in saline was the vehicle used for intraperitoneal administration and carboxymethylcellulose 0.5%, a pharmaceutically acceptable excipient, was used for oral administration. Thirty or 60 min after intraperitoneal or oral administration, respectively, the mice were exposed to the hot plate and the latency for displaying the nociceptive behavior was determined as described.

The subject of series [10] is motor activity. Description: motor activity of mice in a rotarod. Format: in vivo. Conditions: Swiss male mice; 10, 25 or 50 mg/kg intraperitoneal (30 min) or 100 or 200 mg/kg oral (60 min). On the procedure: The effect of BS on motor activity of Swiss male mice (20-30 g) was evaluated in order to investigate whether inhibition of nociceptive behavior in animals treated with BS would be a result of a central depressive effect. Their motor activity was evaluated in a rotarod. A day before the experiment, the mice were trained in the apparatus. During the experiment, they were put in a rotarod (14 rpm) and the time they stayed in the apparatus was determined. One minute was the cut-off time. After basal measurements, the animals were treated with BS (10, 25 or 50 mg/kg, intraperitoneal or 100 or 200 mg/kg, oral). Dimethyl sulfoxide (DMSO) 25%+Tween 80 10% in saline was the vehicle used for intraperitoneal administration and carboxymethylcellulose 0.5%, a pharmaceutically acceptable excipient, was used for oral administration. Thirty or 60 min after intraperitoneal or oral administration, respectively, the animals were evaluated again in the rotarod apparatus.
In general terms: In the rotarod test animals must keep their balance on a rotating rod.

Series [11] deals with cell migration induced by carrageenan. Description: cell migration induced by intraperitoneal injection of carrageenan in rats. It is filed as in vivo. The note with it: 200 mg/kg oral -60 min. As to the method:
In this model, carrageenan (500 μg, 1 ml, suspended in saline) is injected into the peritoneal cavity of rats. After three hours, the animals are euthanized and 10 ml phosphate buffer are injected into the peritoneal cavity. The peritoneal lavage is removed and the centrifuged. The supernatant is removed and the pellet is suspended in a 2 ml of phosphate buffer. An aliquot of 20 μl is added to a 400 μl Turk's solution. The number of cells is determined by microscopy.
Carboxymethylcellulose 0.5%, a pharmaceutically acceptable excipient, was used for oral administration. BS (200 mg/kg, oral, −60 min) inhibited cell migration induced by carrageenan.

For series [12], the system named is nociceptive response induced by formaldehyde. Conditions: compared with first phase; Blackburn-Munro et al., Eur. J. Pharmacol. 445, 231, 2002; cited from earlier work.
[13] abbreviates: females, Satellite group, n = 5.

In the case of `NC(=O)NN=Cc1ccccc1` [BS, benzaldehyde semicarbazone], the “first phase of the nociceptive response induced by formaldehyde” value in series [1] (50 mg/kg intraperitoneal, only this dose, 0 to 5 min) was “inhibited”. Further, the “second phase of the nociceptive response induced by formaldehyde” value (“second phase” below) in series [1] (10, 25 or 50 mg/kg i.p. or 100 or 200 mg/kg oral, 15 to 30 min) was “markedly inhibited”. Moreover, the “paw edema induced by carrageenan” value in series [2] is on record as “inhibited”. Also, in series [3], the “mechanical allodynia induced by carrageenan” value is recorded as “inhibited”. Besides, the “thermal allodynia induced by carrageenan” value in series [4] is on record as “inhibited”. Besides, the fibrovascular tissue formation result in series [5] is “inhibited”. Further, the “febrile response induced by endotoxin” value in [6] is given as “inhibited”. Moreover, the Final body mass was 197.27 ± 14.44^AB in series [7] (setting [13]); 230.30 ± 15.42^A in [7] (females, dose 100, 28 days, n = 5); 208.38 ± 24.28^AB in series [7] (females, dose 300, 28 days, n = 5); 170.00 ± 17.22^B in series [7] (females, dose 500, 28 days, n = 5); 222.57 ± 29.34^B* in series [7] (males, Satellite group, death of an animal during treatment); 340.20 ± 50.91^A in [7] (males, dose 100, 28 days, n = 5). Also, the Final body mass in series [7] (males, dose 300, 28 days, n = 5) is on record as 258.53 ± 25.76^B; in [7] (males, dose 500, 28 days, n = 5) it was 240.00 ± 46.65^B. The Initial body mass in series [7] (setting [13]) was 198.10 ± 15.06^A; in series [7] (females, dose 100, n = 5), 207.60 ± 12.62^A; in series [7] (females, dose 300, n = 5) it was 192.30 ± 13.34^A; in [7] (females, dose 500, n = 5) it was 196.60 ± 8.20^A; in series [7] (males, Satellite group, n = 5) it was 197.00 ± 4.51^A; in [7] (males, dose 100, n = 5) it was 240.87 ± 20.07^A. The Initial body mass in series [7] (males, dose 300, n = 5) was 192.50 ± 8.32^A; in series [7] (males, dose 500, n = 5) it was 225.30 ± 34.72^A. Also, the body weight gain entry in series [7] (rats, higher doses, oral daily 28 days) is “reduced body weight gain”. Also, the “Observed signs: general activity score (normal 4)” value in series [8] (300 mg/kg, 30' - 9 h) is given as “General activity (3),”. Moreover, the “Observed signs: grooming score (normal 0)” value in series [8] (300 mg/kg, 30' - 9 h) is recorded as “grooming (1)”. Further, the Observed signs entry in [8] (300 mg/kg, 9 h - 14th day) is given as “No toxicity signs”; in [8] (2000 mg/kg, from the 2nd day) it was “No toxicity signs”. Also, the “Observed signs: ataxia score (normal 0)” value in series [8] (2000 mg/kg, 30' - 12 h) was 4. The “Observed signs: cage corner score (normal 0)” value in series [8] (2000 mg/kg, 30' - 12 h) amounted to 1. For the same molecule, the “Observed signs: piloerection score (normal 0)” value in series [8] (2000 mg/kg, 30' - 12 h) is “piloerection (1),”. In addition, the “Observed signs: prostration score (normal 0)” value in series [8] (2000 mg/kg, 30' - 12 h) is recorded as “prostration (3)”. The “category in the Globally Harmonized System for the Classification and Labeling of Chemicals” value in series [8] (from a death at the highest dose (2.000 mg/kg) in the acute toxicity test) is given as 5. For the same molecule, the “signs in the acute toxicity test” value in series [8] (rats, 300 mg/kg oral single dose, reversible after few hours) is “reduction of motor activity and grooming”. Further, the “reversibility of signs of toxicity” value in series [8] (rats, 2000 mg/kg oral single dose) is reported as “second day”. Besides, the entries for the “T/M = number of rats treated/number of deaths” value in series [8] (single oral dose 300 mg/kg) and in series [8] (single oral dose 2000 mg/kg) were 5/0 and 5/1*, respectively. For the same molecule, the “antinociceptive effect in the hot plate model” value in series [9] is recorded as “did not induce an antinociceptive effect”. Besides, the “motor activity (time stayed in the rotarod)” value in series [10] was “did not alter the motor activity”. In series [11], the “cell migration induced by carrageenan” value was “inhibited”.

Turning to `Nc1nnc(-c2cccc(Cl)c2Cl)c(N)n1` [lamotrigine], the “second phase” value in series [12] is on record as “inhibit more effectively the second phase”.

`O=C1NC(=O)C(c2ccccc2)(c2ccccc2)N1` [phenyloin]: the “second phase” value in series [12] is given as “inhibit more effectively the second phase”.

As for `NC(=O)N1c2ccccc2C=Cc2ccccc21` [carbamazepine], in [12], the “second phase” value was “inhibit more effectively the second phase”.
